Test results as given in paper PMC3401419 (Journal of the American Chemical Society, 2012).
Where two headings read alike, the source gives them in different places. Where a SMILES comes first, the peptide text is derived from it.

What was measured:
[1] = biological target: T1, Recombinant human somatic ACE (sACE-1) (Homo sapiens, UniProt P12821); experiment: biochemical
[2] = biological target: T1, Recombinant human somatic ACE (sACE-1); conditions: pH 7.4
[3] = biological target: T1, Recombinant human somatic ACE (sACE-1); experiment: Time-dependent inactivation of sACE-1 with coreactants; conditions: pH 7.4, 37 °C, same concentration as corresponding lisinopril complex
[4] = biological target: T1, Recombinant human somatic ACE (sACE-1); experiment: Concentration-dependent inhibition of sACE-1; conditions: inhibitor and substrate concentration varied, Dixon plots

T1 sequence (P12821 30-1261): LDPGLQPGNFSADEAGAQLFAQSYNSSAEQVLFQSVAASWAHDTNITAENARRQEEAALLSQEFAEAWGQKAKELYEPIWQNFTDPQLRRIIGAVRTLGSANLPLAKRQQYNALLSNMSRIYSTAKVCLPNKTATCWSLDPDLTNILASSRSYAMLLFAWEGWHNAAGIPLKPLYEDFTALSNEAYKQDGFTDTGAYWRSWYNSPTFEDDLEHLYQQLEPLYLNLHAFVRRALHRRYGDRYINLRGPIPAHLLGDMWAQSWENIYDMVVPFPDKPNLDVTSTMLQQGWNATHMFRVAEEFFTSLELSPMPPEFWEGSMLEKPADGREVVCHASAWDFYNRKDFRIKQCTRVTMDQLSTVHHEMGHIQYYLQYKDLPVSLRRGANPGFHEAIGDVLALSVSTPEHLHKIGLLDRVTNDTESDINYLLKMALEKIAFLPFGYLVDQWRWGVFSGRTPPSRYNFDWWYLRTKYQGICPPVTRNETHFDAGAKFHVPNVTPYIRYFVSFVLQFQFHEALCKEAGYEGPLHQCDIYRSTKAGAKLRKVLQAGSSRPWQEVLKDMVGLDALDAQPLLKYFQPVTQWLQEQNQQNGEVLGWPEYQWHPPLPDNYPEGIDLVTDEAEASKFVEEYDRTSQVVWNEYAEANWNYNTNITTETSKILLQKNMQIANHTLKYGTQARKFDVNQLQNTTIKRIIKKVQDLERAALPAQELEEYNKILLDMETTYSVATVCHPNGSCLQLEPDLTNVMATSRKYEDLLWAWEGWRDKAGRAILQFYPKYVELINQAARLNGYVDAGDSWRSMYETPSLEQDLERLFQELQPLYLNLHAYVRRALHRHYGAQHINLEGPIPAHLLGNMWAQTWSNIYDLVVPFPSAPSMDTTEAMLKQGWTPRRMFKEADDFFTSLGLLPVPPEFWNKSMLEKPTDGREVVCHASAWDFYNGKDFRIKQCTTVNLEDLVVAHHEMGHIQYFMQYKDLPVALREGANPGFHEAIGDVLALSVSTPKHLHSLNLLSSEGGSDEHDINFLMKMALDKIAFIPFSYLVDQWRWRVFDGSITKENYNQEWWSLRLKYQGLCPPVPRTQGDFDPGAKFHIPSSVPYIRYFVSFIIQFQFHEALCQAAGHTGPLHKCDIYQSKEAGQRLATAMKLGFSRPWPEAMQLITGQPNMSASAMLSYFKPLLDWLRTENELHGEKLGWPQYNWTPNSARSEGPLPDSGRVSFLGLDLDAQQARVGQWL

IC50 [1] | IC50 [2] | SMILES | further results
32 µM |  | O=C(O)CN(CC(=O)O)CC(=O)O [NTA, Nitrilotriacetic acid] | 
7.2 µM |  | O=C(O)CN(CCN(CC(=O)O)CC(=O)O)CC(=O)O [EDTA, Ethylenediamine-tetraacetic acid] | 
 | > 100 µM | NCC(=O)NCC(=O)N[C@@H](Cc1cnc[nH]1)C(=O)O [GGH] (H-Gly-Gly-His-OH) | 

Continued, molecule first:

SMILES | IC50 [1] | IC50 [2] | further results
O=C(O)CN1CCN(CC(=O)O)CCN(CC(=O)O)CCN(CC(=O)O)CC1 [DOTA, 1,4,7,10-tetraazacyclododecane-1,4,7,10-tetraacetic acid] | 7 µM |  | 
O=C([O-])CN(CCN(CC(=O)[O-])CC(=O)[O-])CC(=O)[O-].[Cu+2] [Cu-EDTA] |  | 26 µM | k2 for inactivation of sACE-1, M-chelate without lisinopril (control) ([3]; Ascorbate): 2,000 ± 3,000 {-- ^d} M^−1min^−1; k2 for inactivation of sACE-1, M-chelate without lisinopril (control) ([3]; H2O2): < 3,000 {-- ^d} M^−1min^−1
NCCCC[C@H](N[C@@H](CCc1ccccc1)C(=O)O)C(=O)N1CCC[C@H]1C(=O)O [lisinopril] |  |  | mode of inhibition of sACE-1 [4]: competitive
O=C([O-])CN(CC(=O)[O-])CC(=O)O.[Cu+2] [Cu-NTA] |  | 36 µM | 
